The target of the assay is Dihydrofolate reductase (Lacticaseibacillus casei, UniProt P00381). Briefly: Inhibitory activity against dihydrofolate reductase (DHFR) from Lactobacillus casei (expressed as log 1/Kiapp).
Sequence of Dihydrofolate reductase (P00381 whole entry): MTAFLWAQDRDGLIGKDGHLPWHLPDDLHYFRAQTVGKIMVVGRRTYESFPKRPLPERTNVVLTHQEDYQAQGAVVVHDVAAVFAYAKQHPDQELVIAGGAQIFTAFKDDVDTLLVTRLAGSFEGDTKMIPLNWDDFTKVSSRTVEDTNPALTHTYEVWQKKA

Take `Nc1ncc(Cc2cc(O)cc(O)c2)c(N)n1`: the Ki worked out at 417000 nM.

As to `Nc1ncc(Cc2ccccc2)c(N)n1`, the Ki came out at 6310 nM.

Take `COCCOc1cccc(Cc2cnc(N)nc2N)c1`: the Ki amounted to 759 nM.

For `Nc1ncc(Cc2ccc(O)c(O)c2)c(N)n1`, the Ki came out at 1440 nM.

In turn, `COCCOc1ccc(Cc2cnc(N)nc2N)cc1OCCOC` displayed a Ki of 309 nM.

Regarding `CCCCCCOc1ccc(Cc2cnc(N)nc2N)cc1`, the Ki came to 1860 nM.

`Cc1cccc(Cc2cnc(N)nc2N)c1` showed a Ki of 1660 nM.

`Nc1ncc(Cc2cccc(F)c2)c(N)n1` displayed a Ki of 4170 nM.

The compound `Nc1ncc(Cc2ccc([N+](=O)[O-])cc2)c(N)n1` had a Ki of 1000 nM.

As for `Nc1ncc(Cc2cccc(Br)c2)c(N)n1`, the Ki stood at 589 nM.

Take `Nc1ncc(Cc2ccc(F)cc2)c(N)n1`: the Ki came to 2140 nM.

For `Nc1ncc(Cc2cccc(Cl)c2)c(N)n1`, the Ki came to 1260 nM.

In turn, `Nc1ncc(Cc2ccc(Cl)cc2)c(N)n1` came in with a Ki of 646 nM.

In turn, `Nc1ncc(Cc2cccc(C(F)(F)F)c2)c(N)n1` showed a Ki of 692 nM.

The compound `COc1ccc(Cc2cnc(N)nc2N)cc1C(F)(F)F` yielded a Ki of 50 nM.

`Nc1ccc(Cc2cnc(N)nc2N)cc1` had a Ki of 3390 nM.

Compound `Nc1ncc(Cc2cc(CO)cc(CO)c2)c(N)n1` came in with a Ki of 1860 nM.

Regarding `Nc1ncc(Cc2cccc(CO)c2)c(N)n1`, the Ki worked out at 2140 nM.

In turn, `CS(=O)(=O)Oc1cccc(Cc2cnc(N)nc2N)c1` yielded a Ki of 1200 nM.

As to `COCCOc1ccc(Cc2cnc(N)nc2N)cc1`, the Ki amounted to 891 nM.

In the case of `CN(C)c1ccc(Cc2cnc(N)nc2N)cc1`, the Ki is 676 nM.

As for `Nc1ncc(Cc2ccc(OC(F)(F)F)cc2)c(N)n1`, the Ki was 501 nM.

With `CCCCOCc1cccc(Cc2cnc(N)nc2N)c1`, the Ki worked out at 3240 nM.

Compound `CC(=O)Nc1ccc(Cc2cnc(N)nc2N)cc1` came in with a Ki of 891 nM.

`NC(=O)COc1cccc(Cc2cnc(N)nc2N)c1`: the Ki was found to be 1100 nM.

As to `Nc1ncc(Cc2cccc(I)c2)c(N)n1`, the Ki came to 214 nM.

Regarding `COCc1cccc(Cc2cnc(N)nc2N)c1`, the Ki came to 2290 nM.

For `Nc1ncc(Cc2ccc(Br)cc2)c(N)n1`, the Ki was determined as 617 nM.

In turn, `Cc1ccc(Cc2cnc(N)nc2N)cc1` came in with a Ki of 1480 nM.

In turn, `CC(=O)Nc1ccc(Cc2cnc(N)nc2N)cc1[N+](=O)[O-]` came in with a Ki of 1000 nM.

Turning to `CCCCOc1ccc(Cc2cnc(N)nc2N)cc1`, the Ki was 427 nM.

Compound `Nc1ncc(Cc2cccc(O)c2)c(N)n1` [3-(2,4-Diamino-pyrimidin-5-ylmethyl)-phenol] displayed a Ki of 1510 nM.

With `CCCCCCCOc1ccc(Cc2cnc(N)nc2N)cc1` [5-(4-Heptyloxy-benzyl)-pyrimidine-2,4-diamine], the Ki was 4370 nM.

The compound `COCCOc1c(OC)cc(Cc2cnc(N)nc2N)cc1OC` [5-[3,5-Dimethoxy-4-(2-methoxy-ethoxy)-benzyl]-pyrimidine-2,4-diamine] displayed a Ki of 550 nM.

The compound `COc1ccc(Cc2cnc(N)nc2N)cc1OC` [Diaveridine] showed a Ki of 120 nM.

These data come from BindingDB's records for doi:10.1021/jm00349a003 (1982).
